According to PubChem BioAssay (NCI):
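Grown in 96-well plates, cells were treated for 48 hours with each compound at five concentrations. Insufficient inhibition: endpoint recorded as highest concentration tested. GI50 is the concentration that inhibits growth by half. The concentration for full growth arrest is given as TGI.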

Columns and labels:
Assay in all cases: inhibition of tumour cell growth, NCI panel, 48 h
[1] = tested on: HCT-116 colon
[2] = tested on: SK-MEL-5 melanoma
[3] = tested on: HL-60(TB) leukemia
[4] = tested on: U251 CNS
[5] = tested on: OVCAR-8 ovarian
[6] = tested on: SF-539 CNS
[7] = tested on: HOP-92 NSCLC
[8] = tested on: K-562 leukemia
[9] = tested on: HOP-62 NSCLC
[10] = tested on: HCC-2998 colon

Compound: CC/C=C\C/C=C\C[C@H](O)C/C=C1/C(=O)C=C[C@H]1C/C=C\CCC(=O)OC
- GI50 [1]: 1.55 µM
- TGI [1]: 3.15 µM
- GI50 [2]: 1.94 µM
- TGI [2]: 6.21 µM
- GI50 [3]: 2.49 µM
- TGI [3]: > 8.25 µM
- GI50 [4]: 2.66 µM
- TGI [4]: > 8.25 µM
- GI50 [5]: 2.51 µM
- TGI [5]: > 8.25 µM
- GI50 [6]: 2.82 µM
- TGI [6]: > 8.25 µM
- GI50 [7]: > 8.25 µM
- TGI [7]: > 8.25 µM
- GI50 [8]: 2.26 µM
- TGI [8]: > 8.25 µM
- GI50 [9]: 3.17 µM
- TGI [9]: > 8.25 µM
- GI50 [10]: 1.6 µM
- TGI [10]: 3.39 µM

Compound: Cn1c(=O)c(Oc2cccc(F)c2)cc2cnc(NC3CCOCC3)nc21
- GI50 [1]: > 25 µM
- TGI [1]: > 25 µM
- GI50 [2]: > 25 µM
- TGI [2]: > 25 µM
- GI50 [3]: > 25 µM
- TGI [3]: > 25 µM
- GI50 [4]: > 25 µM
- TGI [4]: > 25 µM
- GI50 [5]: > 25 µM
- TGI [5]: > 25 µM
- GI50 [6]: > 25 µM
- TGI [6]: > 25 µM
- GI50 [7]: 4.47 µM
- TGI [7]: 24.5 µM
- GI50 [8]: > 25 µM
- TGI [8]: > 25 µM
- GI50 [9]: > 25 µM
- TGI [9]: > 25 µM
- GI50 [10]: > 25 µM
- TGI [10]: > 25 µM

Compound: CCCCCCCCCCCCCC[P+](CCCCCC)(CCCCCC)CCCCCC
- GI50 [1]: 0.0606 µM
- TGI [1]: > 100 µM
- GI50 [2]: 0.0829 µM
- TGI [2]: 0.258 µM
- GI50 [3]: 0.0303 µM
- TGI [3]: 0.0966 µM
- GI50 [4]: 0.0384 µM
- TGI [4]: 1.29 µM
- GI50 [5]: 0.0856 µM
- TGI [5]: 1.78 µM
- GI50 [6]: 0.202 µM
- TGI [6]: 1.72 µM
- GI50 [7]: 0.0299 µM
- TGI [7]: 0.423 µM
- GI50 [8]: 0.0232 µM
- TGI [8]: 0.0858 µM
- GI50 [9]: 0.229 µM
- GI50 [10]: 0.168 µM
- TGI [10]: 1.69 µM

Compound: COc1cc(C(=O)/C=C/c2c(-c3ccc(F)cc3)nc3sc(C)cn23)cc(OC)c1OC
- GI50 [1]: 2.92 µM
- TGI [1]: > 100 µM
- GI50 [2]: 0.516 µM
- TGI [2]: 1.98 µM
- GI50 [3]: 2.87 µM
- TGI [3]: > 100 µM
- GI50 [4]: 4.07 µM
- TGI [4]: > 100 µM
- GI50 [5]: 4.94 µM
- TGI [5]: > 100 µM
- GI50 [6]: 6.23 µM
- TGI [6]: > 100 µM
- GI50 [7]: 0.155 µM
- TGI [7]: 6.32 µM
- GI50 [8]: 5.46 µM
- TGI [8]: > 100 µM
- GI50 [9]: 85.1 µM
- TGI [9]: > 100 µM
- GI50 [10]: 9.93 µM
- TGI [10]: > 100 µM

Compound: CS(=O)(=O)OCCN1CCN(C(=O)c2cccc3c(Nc4ccc(S(N)(=O)=O)cc4)c4ccccc4nc23)CC1
- TGI [1]: > 57.7 µM
- TGI [2]: > 100 µM
- TGI [3]: > 100 µM
- TGI [4]: > 100 µM
- TGI [5]: > 100 µM
- TGI [6]: > 100 µM
- TGI [7]: > 100 µM
- TGI [8]: > 81.1 µM
- TGI [9]: > 100 µM
- TGI [10]: > 100 µM

Compound: COc1cc([C@@H]2c3cc4c(cc3C(Br)[C@H]3COC(=O)[C@H]23)OCO4)cc(OC)c1OC (some centres not stated)
- GI50 [1]: 0.207 µM
- TGI [1]: 0.784 µM
- GI50 [2]: 0.209 µM
- TGI [2]: 0.488 µM
- GI50 [3]: 0.223 µM
- GI50 [4]: 0.296 µM
- TGI [4]: > 81.2 µM
- GI50 [5]: 0.31 µM
- GI50 [6]: 0.185 µM
- TGI [6]: 0.598 µM
- GI50 [7]: 0.529 µM
- TGI [7]: > 30.1 µM
- GI50 [8]: 0.185 µM
- TGI [8]: > 100 µM
- GI50 [9]: 0.436 µM
- TGI [9]: > 100 µM
- GI50 [10]: 0.255 µM
- TGI [10]: 0.694 µM

Compound: CN(C)c1ccc(C(=O)c2ccc(N(C)C)c(N)c2)cc1N
- GI50 [1]: 2.4 µM
- TGI [1]: 31.3 µM
- GI50 [2]: 2.7 µM
- TGI [2]: 34.2 µM
- GI50 [3]: 1.29 µM
- TGI [3]: 9.08 µM
- GI50 [4]: 2.79 µM
- TGI [4]: > 100 µM
- GI50 [5]: 8.99 µM
- TGI [5]: > 100 µM
- GI50 [6]: 3.92 µM
- TGI [6]: 26.5 µM
- GI50 [7]: 1.46 µM
- TGI [7]: > 70.4 µM
- GI50 [8]: 0.867 µM
- TGI [8]: > 86.5 µM
- GI50 [9]: 5.91 µM
- TGI [9]: > 100 µM
- GI50 [10]: 3.9 µM
- TGI [10]: 39.3 µM

Compound: Cc1ccc2c[c]1[Hg][CH2]COS2(=O)=O
- GI50 [1]: 16.6 µM
- TGI [1]: 30.2 µM
- GI50 [2]: 16.7 µM
- TGI [2]: 30.3 µM
- GI50 [3]: 21.8 µM
- TGI [3]: 42.1 µM
- GI50 [4]: 17.5 µM
- TGI [4]: 31.3 µM
- GI50 [5]: 16 µM
- TGI [5]: 29.5 µM
- GI50 [6]: 18 µM
- TGI [6]: 32.5 µM
- GI50 [7]: 19.5 µM
- TGI [7]: 38.3 µM
- GI50 [8]: 16.4 µM
- TGI [8]: 41.2 µM
- GI50 [9]: 71.7 µM
- TGI [9]: > 100 µM
- GI50 [10]: 15.7 µM
- TGI [10]: 34.5 µM

Compound: C[C@]12CC/C(=N\N)C[C@@H]1CC[C@@H]1[C@@H]2CC[C@]2(C)/C(=N/N)CC[C@@H]12
- GI50 [1]: > 100 µM
- TGI [1]: > 100 µM
- GI50 [2]: > 100 µM
- TGI [2]: > 100 µM
- GI50 [3]: > 100 µM
- TGI [3]: > 100 µM
- GI50 [4]: > 100 µM
- TGI [4]: > 100 µM
- GI50 [5]: > 100 µM
- TGI [5]: > 100 µM
- GI50 [6]: > 100 µM
- TGI [6]: > 100 µM
- GI50 [7]: > 100 µM
- TGI [7]: > 100 µM
- GI50 [8]: > 100 µM
- TGI [8]: > 100 µM
- GI50 [9]: > 100 µM
- TGI [9]: > 100 µM
- GI50 [10]: > 100 µM
- TGI [10]: > 100 µM

Compound: O=S(=O)([O-])[O-].[Cl-].[NH2-].[NH2-].[NH2-].[NH2-].[Ru+3].c1ccc(-c2cccnc2)cc1
- GI50 [1]: > 100 µM
- TGI [1]: > 100 µM
- GI50 [2]: > 100 µM
- TGI [2]: > 100 µM
- GI50 [3]: > 100 µM
- TGI [3]: > 100 µM
- GI50 [4]: > 100 µM
- TGI [4]: > 100 µM
- GI50 [5]: > 100 µM
- TGI [5]: > 100 µM
- GI50 [6]: > 100 µM
- TGI [6]: > 100 µM
- GI50 [7]: > 100 µM
- TGI [7]: > 100 µM
- GI50 [8]: > 100 µM
- TGI [8]: > 100 µM
- GI50 [9]: > 100 µM
- TGI [9]: > 100 µM
- GI50 [10]: > 100 µM
- TGI [10]: > 100 µM

Compound: CCN(CC)c1ccc(N=C2C=C(C(=O)Nc3ccc(S(C)(=O)=O)cc3)C(=O)c3ccccc32)c(C)c1
- GI50 [1]: 12.6 µM
- TGI [1]: > 100 µM
- GI50 [2]: 5.84 µM
- TGI [2]: > 100 µM
- GI50 [3]: 14 µM
- TGI [3]: > 100 µM
- GI50 [4]: 4.69 µM
- TGI [4]: > 100 µM
- GI50 [5]: > 100 µM
- TGI [5]: > 100 µM
- GI50 [6]: 1.07 µM
- TGI [6]: > 100 µM
- GI50 [7]: > 100 µM
- TGI [7]: > 100 µM
- GI50 [8]: 15.8 µM
- TGI [8]: > 100 µM
- GI50 [9]: 91.7 µM
- TGI [9]: > 100 µM
- GI50 [10]: > 100 µM
- TGI [10]: > 100 µM

Compound: CCN(CC)c1ccc(N=C2C=CC(=O)c3ncccc32)c(C)c1
- TGI [1]: 6 µM
- TGI [2]: 18.4 µM
- TGI [3]: 5.15 µM
- TGI [4]: 19.6 µM
- TGI [5]: 10.5 µM
- TGI [6]: 19.4 µM
- TGI [7]: 19.7 µM
- TGI [8]: 5.95 µM
- TGI [9]: 37.2 µM
- TGI [10]: 24.2 µM

Compound: N#Cc1c2ccccc2c2n1-c1ccccc1OC(c1ccccc1)C2=O (configuration not stated)
- GI50 [1]: 2.84 µM
- TGI [1]: 12.4 µM
- GI50 [2]: 1.86 µM
- TGI [2]: 3.87 µM
- GI50 [3]: 2.83 µM
- TGI [3]: 6.03 µM
- GI50 [4]: 3.17 µM
- TGI [4]: 15.7 µM
- GI50 [5]: 3.26 µM
- TGI [5]: 15.7 µM
- GI50 [6]: 4.29 µM
- TGI [6]: 16.8 µM
- GI50 [7]: 2.01 µM
- TGI [7]: 5.88 µM
- GI50 [8]: 3.19 µM
- TGI [8]: 13.9 µM
- GI50 [9]: 3.84 µM
- TGI [9]: 15.8 µM
- GI50 [10]: 15.5 µM
- TGI [10]: 85.8 µM

Compound: C[C@@H]1COCCN1c1nc(-c2cnc(N)cc2C(F)F)nc(N2[C@H](C)COC[C@@H]2C)n1
- GI50 [1]: 0.485 µM
- TGI [1]: 14.5 µM
- GI50 [2]: 0.307 µM
- TGI [2]: 2.03 µM
- GI50 [3]: 0.863 µM
- TGI [3]: 19.5 µM
- GI50 [4]: 0.355 µM
- TGI [4]: 13.7 µM
- GI50 [5]: 0.367 µM
- TGI [5]: 21.4 µM
- GI50 [6]: 0.264 µM
- TGI [6]: 6.66 µM
- GI50 [7]: 0.09 µM
- TGI [7]: 1.14 µM
- GI50 [8]: 0.379 µM
- TGI [8]: 17.4 µM
- GI50 [9]: 0.332 µM
- TGI [9]: 13.2 µM
- GI50 [10]: 0.31 µM
- TGI [10]: 12.2 µM

Compound: N#Cc1cccc(C(=O)c2cnn(-c3ccc(F)cc3)c2N)c1
- GI50 [1]: > 25 µM
- TGI [1]: > 25 µM
- GI50 [2]: > 25 µM
- TGI [2]: > 25 µM
- GI50 [3]: > 25 µM
- TGI [3]: > 25 µM
- GI50 [4]: 18.1 µM
- TGI [4]: > 25 µM
- GI50 [5]: > 25 µM
- TGI [5]: > 25 µM
- GI50 [6]: > 25 µM
- TGI [6]: > 25 µM
- GI50 [7]: > 25 µM
- TGI [7]: > 25 µM
- GI50 [8]: > 25 µM
- TGI [8]: > 25 µM
- GI50 [9]: > 17.2 µM
- TGI [9]: > 25 µM
- GI50 [10]: > 25 µM
- TGI [10]: > 25 µM
